The source of these data is US4075340A, “Thieno [2,3-C] pyridine derivatives and therapeutic composition containing same” (Parcor, priority 1975, dated 1978).

Molecules are shown by their SMILES. Where a name gives a salt, the structure may show the parent alone. Read-outs that look alike come from different tables or passages of the source.

The nature of series [1]: acute toxicity, LD50 /24 hrs/kg body weight, intravenous route, method according to Miller and Tainter. The note with it: in vivo.
The test system of series [2] is blood platelet aggregation. In words: Inhibiting activity on blood platelet aggregation (adenosine diphosphate induced, turbidimetric assay). Format: in vivo. To be noted: rat plasma, animals administered 100 mg/kg, read-out: percent inhibition on blood platelet aggregation. The method, then:
Rat plasma, prepared to contain 600,000+20,000 blood platelets per mm3 is normally cloudy. Addition of adenosine diphosphate induces blood platelet aggregation and, thus an increase of the light transmission. When the same test is effected with a plasma prepared from the blood of an animal which has been administered 100 mg/kg of a derivative having an inhibiting effect on blood platelet aggregation, there is no aggregation of the blood platelets and the serum remains cloudy. The turbidimetric assay effected with a spectrophotometer provides a measure of the inhibiting activities of the test derivatives on blood platelet aggregation.

Series [3] relates to carrageenin-induced edema in rats. In words: Localized Carrageenin-induced Edema Method. To be noted: Rattus norvegicus, oral 100 mg/kg, repeated (1 hour before, with, 1 and 2.5 hours after carrageenin). Format: in vivo. On the procedure: a) Localized Carrageenin-induced Edema Method
0.1 ml of a 1% carrageenin solution is injected at time 0 in the metatarsal flexor muscles of the right hind limb of rats. The animals of the treated group are administered orally, additionally, 100 mg/kg of the test derivative, respectively one hour prior to and then simultaneously with the phlogogenic agent, and then one hour and 2.5 hours thereafter. The determinations effected with a ROCH micrometer at times 0, 1 hour, 2 hrs, 3 hrs and 5hrs after carrageenin administration, make it possible to determine the percent anti-inflammatory activity, as a function of time.
(In general: The carrageenan paw model is a standard test of acute inflammation.)

The subject of series [4] is ovalbumin-induced systemic edema in rats. Briefly: Ovalbumin-induced Systemic Edema Method. Format: in vivo. The note with it: Rattus norvegicus, oral 100 mg/kg, 1 hour before and with ovalbumin. The method, then: b) Ovalbumin-induced Systemic Edema Method
Rats are administered a simultaneous intraperitoneal injection of 1 ml ovalbumin and 0.5 ml of a 1% aqueous Evans Blue solution. The animals of the treated group are additionally administered orally 100 mg/kg of the test derivative, one hour prior to ovalbumin administration and then simultaneously with said ovalbumin administration. The intensity of the phenomenon thus induced is rated according to a scale from 1 to 5, according to the progress of the inflammatory syndrome. The measurements are effected after 2 hours and after 3 hours. Thus are determined the mean intensity of the edema and the percent decrease of the edema reaction.

The mark [5] stands for this setting: after 1 hour, read-out: Percent anti-inflammatory activity after 1 hour.
The mark [6] stands for this setting: after 2 hours, read-out: Percent anti-inflammatory activity after 2 hours.
Setting [7] is: after 5 hours, read-out: Percent anti-inflammatory activity after 5 hours.
The mark [8] stands for this setting: after 2 hours, read-out: Percent decrease (of the edema reaction) after 2 hours.
[9] abbreviates: after 3 hours, read-out: Percent decrease (of the edema reaction) after 3 hours.

Turning to `OC(CN1CCc2ccsc2C1)c1ccc(Cl)cc1` (centres unmarked) [Derivative No. 27, 6-(2-hydroxy-2-p.chlorophenyl-ethyl)-4,5,6,7-tetrahydro-thieno[2,3-c]pyridine], the LD50 (in general, the dose expected to kill half of the subjects tested) at 24 h in series [1] was 45 mg/kg. The inhibition (in general, the share of the control response that was lost under treatment) at 100 mg/kg in series [2] stood at 86%.

For the compound `COc1cccc(C(O)CN2CCc3ccsc3C2C)c1` (centres unmarked) [Derivative No. 33, 6-(2-hydroxy-2-m.methoxyphenyl-ethyl)-7-methyl-4,5,6,7,-tetrahydro-thieno[2,3-c]pyridine], in series [2], the inhibition at 100 mg/kg amounted to 74%.

Take `COc1ccc(CN2CCc3ccsc3C2)c(OC)c1OC` [compound 28]: the inhibition in vivo at 100 mg/kg came out at 43% in series [3] (setting [5]); 52% in series [3] (setting [6]); 61% in series [3] (setting [7]); 45% in series [4] (setting [8]); 63% in series [4] (setting [9]).

For the compound `COc1ccc(CN2CCc3ccsc3C2)cc1OC.Cl` [Derivative No. 25, 6-(3,4-dimethoxy-benzyl)-4,5,6,7-tetrahydro-thieno[2,3-c]pyridine, hydrochloride], the LD50 at 24 h in series [1] turned out to be 90 mg/kg.

For `COc1cc(CN2CCc3ccsc3C2)cc(OC)c1OC.O=C(O)/C=C\C(=O)O` [Derivative No. 17, 6-(3,4,5-trimethoxy-benzyl)-4,5,6,7-tetrahydro-thieno[2,3-c]pyridine, maleate], the LD50 at 24 h in series [1] was 80 mg/kg.

`COc1ccc(CN2CCc3ccsc3C2)cc1` [Derivative No. 18, 6-p.methoxybenzyl-4,5,6,7-tetrahydro-thieno[2,3-c]pyridine, hydrochloride] gave an LD50 at 24 h in series [1] of 60 mg/kg. Also, the inhibition at 100 mg/kg in series [2] amounted to 78%.

Compound `COc1cccc(CN2CCc3ccsc3C2)c1` [Derivative No. 20, 6-m.methoxybenzyl-4,5,6,7-tetrahydro-thieno-[2,3-c]pyridine, hydrochloride] returned an LD50 at 24 h in series [1] of 63 mg/kg.

In the case of `COc1ccc(OC)c(C(O)CN2CCc3ccsc3C2C)c1` (centres unmarked) [compound 34], the inhibition in vivo at 100 mg/kg in series [3] (setting [5]) amounted to 37%; in series [3] (setting [6]), 48%; in series [3] (setting [7]), 58%; in series [4] (setting [8]), 45%; in series [4] (setting [9]) it was 61%.

As to `CC(=O)CCN1CCc2ccsc2C1.O=C(O)/C=C\C(=O)O` [Derivative No. 36, 6-(3-oxo-butyl)-4,5,6,7-tetrahydro-thieno[2,3-c]-pyridine, maleate], the LD50 at 24 h in series [1] was 16 mg/kg.

As for `Clc1ccc(CN2CCc3ccsc3C2)s1` [Derivative No. 6, 6-[2-(5-chloro-thienyl)-methyl]-4,5,6,7-tetrahydro-thieno[2,3-c]pyridine], the 50% lethal dose (LD50) at 24 h in series [1] amounted to 135 mg/kg.

For the compound `CC(=O)OC(CN1CCc2ccsc2C1)c1ccc(Cl)cc1` (centres unmarked) [Derivative No. 8, 6-(2-acetoxy-2-p-chlorophenyl-ethyl)-4,5,6,7-tetrahydro-thieno[2,3-c]pyridine], the inhibition in vivo at 100 mg/kg in series [3] (setting [5]) amounted to 40%; in series [3] (setting [6]) it was 49%; in series [3] (setting [7]), 59%; in series [4] (setting [8]) it was 45%; in series [4] (setting [9]), 58%.

In the case of `COc1cccc(C(CN2CCc3ccsc3C2)OC(C)=O)c1` (centres unmarked) [Derivative No. 10, 6-(2-acetoxy-2m.methoxyphenyl-ethyl)-4,5,6,7-tetrahydro-thieno[2,3-c]pyridine], in series [1], the LD50 at 24 h came to 80 mg/kg.

Turning to `COc1ccc(C(O)CN2CCc3ccsc3C2)cc1` (centres unmarked) [compound 30], the inhibition in vivo at 100 mg/kg in series [3] (setting [5]) came to 38%; in series [3] (setting [6]), 44%; in series [3] (setting [7]), 51%; in series [4] (setting [8]), 39%; in series [4] (setting [9]) it was 59%.

In the case of `Cl.O=[N+]([O-])c1ccccc1CN1CCc2ccsc2C1` [Derivative No. 11, 6-o-nitrobenzyl-4,5,6,7-tetrahydro-thieno[2,3-c]pyridine, hydrochloride], in series [1], the LD50 at 24 h was 160 mg/kg.

For the compound `O=[N+]([O-])c1ccc(CN2CCc3ccsc3C2)cc1` [Derivative No. 12, 6-p-nitrobenzyl-4,5,6,7-tetrahydro-thieno[2,3-c]pyridine], in series [2], the inhibition at 100 mg/kg turned out to be 75%.

For the compound `Cc1c2sccc2cc[n+]1CC(=O)c1ccccc1.[Br-]` [Derivative No. 39, 7-methyl-6-phenacyl-thieno[2,3-c]pyridinium bromide], the LD50 at 24 h in series [1] was found to be 35 mg/kg.

In turn, `CC1c2sccc2CCN1CCc1ccccc1` (stereo not drawn) [Derivative No. 31, 7-methyl-6-β-phenethyl-4,5,6,7-tetrahydro-thieno[2,3-c]pyridine, maleate] showed an LD50 at 24 h in series [1] of 53 mg/kg.

In series [1], `c1ccc(CCN2CCc3ccsc3C2)cc1` [Derivative No. 19, 6-β-phenethyl-4,5,6,7-tetrahydro-thieno[2,3-c]pyridine, hydrochloride] registered an LD50 at 24 h of 48 mg/kg.

Compound `Cl.OC(CN1CCc2ccsc2C1)c1ccccc1` (centres unmarked) [Derivative No. 23, 6-(2-hydroxy-2-phenyl-ethyl)-4,5,6,7-tetrahydro-thieno[2,3-c]pyridine, hydrochloride] came in with an LD50 at 24 h in series [1] of 67 mg/kg.

For `COc1cc(CN2CCc3ccsc3C2C)cc(OC)c1OC` (centres unmarked) [Derivative No. 3, 7-methyl-6-(3,4,5-trimethoxy-benzyl)-4,5,6,7-tetrahydro-thieno[2,3-c]pyridine], the inhibition at 100 mg/kg in series [2] came to 91%.

Turning to `CCCCCCCCCCCCN1CCc2ccsc2C1` [Derivative No. 1, 6-n-dodecyl-4,5,6,7-tetrahydro-thieno[2,3-c]pyridine], the inhibition in vivo at 100 mg/kg in series [3] (setting [5]) worked out at 38%; in series [3] (setting [6]), 46%; in series [3] (setting [7]), 54%; in series [4] (setting [8]), 36%; in series [4] (setting [9]), 51%.

For `CC1c2sccc2CCN1CC(O)c1ccccc1` (centres unmarked) [Derivative No. 7, 6-(2-hydroxy-2-phenyl-ethyl)-7-methyl-4,5,6,7-tetrahydro-thieno[2,3-c]pyridine], in series [2], the inhibition at 100 mg/kg was determined as 85%.

For the compound `COc1ccc(OCC(O)CN2CCc3ccsc3C2)cc1` (centres unmarked) [Derivative No. 35, 6-(2-hydroxy-3-p.methoxyphenoxy-propyl)-4,5,6,7-tetrahydro-thieno[2,3-c]pyridine, hydrochloride], the LD50 at 24 h in series [1] stood at 19 mg/kg.

In turn, `COc1ccc(CN2CCc3ccsc3C2)cc1OC` [Derivative No. 38, 6-(3,4-dimethoxy-benzyl)-4,5,6,7-tetrahydro-thieno[2,3-c]pyridine] gave an LD50 at 24 h in series [1] of 22 mg/kg.

The compound `COc1ccc(C(=O)C[n+]2ccc3ccsc3c2C)cc1.[Br-]` [Derivative No. 44, 7-methyl-6-p-methoxyphenacyl-thieno[2,3-c]pyridinium bromide] showed an LD50 at 24 h in series [1] of 51 mg/kg.

Take `OC(CN1CCc2ccsc2C1)c1ccccc1` (centres unmarked) [compound 23]: the inhibition in vivo at 100 mg/kg in series [3] (setting [5]) came out at 39%; in series [3] (setting [6]), 51%; in series [3] (setting [7]), 58%; in series [4] (setting [8]), 50%; in series [4] (setting [9]), 61%.

As for `COc1cccc(C(CN2CCc3ccsc3C2)OC(C)=O)c1` (centres unmarked) [compound 10], the inhibition in vivo at 100 mg/kg amounted to 43% in series [3] (setting [5]); 50% in series [3] (setting [6]); 56% in series [3] (setting [7]); 48% in series [4] (setting [8]); 55% in series [4] (setting [9]).

Consider `Fc1ccccc1CN1CCc2ccsc2C1` [Derivative No. 26, 6-o.fluorobenzyl-4,5,6,7-tetrahydro-thieno[2,3-c]pyridine, fumarate], for which the median lethal dose (LD50) at 24 h in series [1] stood at 87 mg/kg.

As to `O=C(O)c1ccccc1CN1CCc2ccsc2C1` [Derivative No. 5, 6-o-carboxybenzyl-4,5,6,7-tetrahydro-thieno[2,3-c]pyridine], the inhibition in vivo at 100 mg/kg in series [3] (setting [5]) was 44%; in series [3] (setting [6]), 52%; in series [3] (setting [7]), 60%; in series [4] (setting [8]), 42%; in series [4] (setting [9]), 61%.

For `OC(CN1CCc2ccsc2C1)C(Cl)(Cl)Cl` (centres unmarked) [Derivative No. 37, 6-(2-hydroxy-3,3,3-trichloro-propyl)-4,5,6,7-tetrahydro-thieno[2,3-c]pyridine], the LD50 at 24 h in series [1] is 18 mg/kg.

In series [1], `COc1ccc(OC)c(C(O)CN2CCc3ccsc3C2C)c1` (centres unmarked) [Derivative No. 34, 6-[2-(2,5-dimethoxy-phenyl)-2-hydroxy-ethyl]-7-methyl-4,5,6,7-tetrahydro-thieno[2,3-c]pyridine] showed an LD50 at 24 h of 84 mg/kg.
